Earlier results in patent US20080003281A1, “Modified Release Tablet Formulations for Proton Pump Inhibitors” (ASTRAZENECA AB, priority 2004, published 2008).

Test system: gastric acid
Conditions: 40 mg esomeprazole dose split into 20 mg bid

For `COc1ccc2nc([S@@+]([O-])Cc3ncc(C)c(OC)c3C)[nH]c2c1` [esomeprazole, (−)-enantiomer of omeprazole], the “nocturnal gastric acid suppression” value is given as “significantly improved”.
